From patent US10329304B2, “Compounds and methods for inhibition of hedgehog signaling and phosphodiesterase” (Vanderbilt University, priority 2014, dated 2019)
pEC50, pIC50: −log10 of the molar value.

Legend:
[1] = tested on: Hedgehog signaling (Gli-Luc reporter); assay: Hh Gli-Luciferase reporter assay in Shh-Light2 cells; assay type: cell-based, mouse; details: Mus musculus, Shh Light2; Table 9B; read-out: Shh Light2 Luc EC50
Protocol: For Hh signaling assays, Shh-Light2 cells stably transfected with Gli-Luciferase reporter construct were used along with Shh-conditioned media, as previously described^7. Alternatively, 3 μM purmorphamine or 20 nM Smoothened agonist (SAG) (Santa Cruz Biotechnology, Santa Cruz, Calif.) was used to induce Hh signaling. Reporter cells were seeded in 96-well plates and incubated overnight with the various concentrations of eggmanone and Shh-conditioned media. To assess the effects of overexpression of Gli-2, PDE4D3 and DN-PDE4D3 on Hh signaling, mammalian expression vectors containing these constructs were transfected into Shh-Light2 cells in 96-well plates using Fugene6 (Roche), according to manufacturer's instructions. The transfected or Shh-stimulated cells were incubated overnight with the various concentrations of compound. The cells were then lysed, and cell extracts were subjected to Steady-Glo luciferase assay (Promega) according to manufacturer's instructions. The results were normalized to cell titer, as determined using Cell Titer-Glo luminescence assay (Promega).

B16F11 = assay: Cell viability assay (CellTiter-Blue, 72 hr); assay type: cell-based, Mouse; details: Mus musculus, B16-F10; Table 10; read-out: CELL KILLING EC50 (μM) Melanoma B16F10
Protocol: (§1) Cancer cell lines were seeded in 96 well tissue culture plate at a low density (10,000 cells per well) and treated with varying concentrations of Eggmanone. After 72 hr incubation, CellTiter-Blue Cell Viability Assay (Promega, Madison, Wis.) was then performed according to manufacturer's protocol. Absorbance was then measured in a Modulus Microplate reader (Promega, Madison, Wis.) at 590 nm and compared to cells treated with DMSO.
as §1, with “density” for “density (10,000 cells per well)”, “compounds identified in Table 7.” for “Eggmanone.”

DU145 = assay: Cell viability assay (CellTiter-Blue, 72 hr); assay type: cell-based, Human; details: DU-145; human cancer cells; read-out: CELL KILLING EC50 (μM) Prostate DU145
Protocol: as §1
as §1, with “density” for “density (10,000 cells per well)”, “compounds identified in Table 7.” for “Eggmanone.”

DaoY = assay: Cell viability assay (CellTiter-Blue, 72 hr); assay type: cell-based, Human; details: Daoy; human cancer cells; read-out: CELL KILLING EC50 (μM) Medulloblastoma DaoY
Protocol: as §1
as §1, with “density” for “density (10,000 cells per well)”, “compounds identified in Table 7.” for “Eggmanone.”

HCT116 = assay: Cell viability assay (CellTiter-Blue, 72 hr); assay type: cell-based, Human; details: HCT-116; human cancer cells; read-out: CELL KILLING EC50 (μM) Colon HTC116
Protocol: as §1
as §1, with “density” for “density (10,000 cells per well)”, “compounds identified in Table 7.” for “Eggmanone.”

HeLa = assay: Cell viability assay (CellTiter-Blue, 72 hr); assay type: cell-based, Human; details: human cancer cells, read-out: CELL KILLING EC50 (μM) Cervix HeLa
Protocol: as §1
as §1, with “density” for “density (10,000 cells per well)”, “compounds identified in Table 7.” for “Eggmanone.”

MDA-MB- 231 = assay: Cell viability assay (CellTiter-Blue, 72 hr); assay type: cell-based, Human; details: MDA-MB-231; human cancer cells; read-out: CELL KILLING EC50 (μM) Breast MDA-231
Protocol: as §1
as §1, with “density” for “density (10,000 cells per well)”, “compounds identified in Table 7.” for “Eggmanone.”

RKO = assay: Cell viability assay (CellTiter-Blue, 72 hr); assay type: cell-based, Human; details: RKO; human cancer cells; read-out: CELL KILLING EC50 (μM) Colon RKO
Protocol: as §1
as §1, with “density” for “density (10,000 cells per well)”, “compounds identified in Table 7.” for “Eggmanone.”

RWGT2 = assay: Cell viability assay (CellTiter-Blue, 72 hr); assay type: cell-based, Human; details: human cancer cells; read-out: CELL KILLING EC50 (μM) Lung Squam, NSCLC RWGT2
Protocol: as §1
as §1, with “density” for “density (10,000 cells per well)”, “compounds identified in Table 7.” for “Eggmanone.”

SW480 = assay: Cell viability assay (CellTiter-Blue, 72 hr); assay type: cell-based, Human; details: SW480; human cancer cells; read-out: CELL KILLING EC50 (μM) Colon SW480
Protocol: as §1
as §1, with “density” for “density (10,000 cells per well)”, “compounds identified in Table 7.” for “Eggmanone.”

MCF7 = assay: Cell viability assay (CellTiter-Blue, 72 hr); assay type: cell-based; details: MCF7; human cancer cells; read-out: CELL KILLING EC50 (μM) Breast MCF7
Protocol: as §1
as §1, with “density” for “density (10,000 cells per well)”, “compounds identified in Table 7.” for “Eggmanone.”

PC3 = assay: Cell viability assay (CellTiter-Blue, 72 hr); assay type: cell-based; details: PC-3; human cancer cells; read-out: CELL KILLING EC50 (μM) Prostate PCx3
Protocol: as §1

H82 = assay: Cell killing EC50 in H82 lung cancer cells (Table 10); assay type: cell-based; details: NCI-H82; human cancer cells
Protocol: It is anticipated that compounds disclosed herein could serve as an anti-tumor, anti-angiogenic, anti-metastatic, agent in the treatment of cancer. To this end, a series of clinically relevant cancer lines were assayed and the cell-killing EC50s for compounds according to the subject matter disclosed herein are provided in Table 10.

PDE4D2 = molecular target: T1, PDE4D2 (Homo sapiens, UniProt Q08499); assay: In vitro PDE assay; assay type: biochemical
T1 construct: purchased BPS Biosciences (San Diego, Calif.)
Protocol: (§2) In vitro PDE profiling and dose-response assays were performed by BPS Biosciences (San Diego, Calif.). Kinetic Mechanism of inhibition studies were conducted by Millipore (St. Louis, Mo.). In brief, the PDE assay measures fluorescent polarization of FAM-AMP as FAM-cAMP is converted to FAM-AMP by PDE), the binding agent.
(§3) A series of dilutions of the test compound were prepared with 10% DMSO in assay buffer and 5 μl of the dilution was added to a 50 μl reaction so that the final concentration of DMSO is 1% in all of reactions. All of the PDE enzymatic reactions were conducted in duplicate at room temperature for 60 minutes in a 50 μl mixture containing PDE assay buffer (10 mM Tris-HCl, pH7.4, 10 mM MaCl2, 0.05% Tween 20), 100 nM FAM-cAMP, a PDE enzyme and a test compound.
(§4) After the enzymatic reaction, 100 μl of a binding solution (1:100 dilution of the binding agent, which contains the nano beads that recognize FAM-AMP, with the binding agent diluent) was added to each reaction and the reaction was performed at room temperature for 60 minutes. Fluorescence intensity was measured at an excitation of 485 nm and an emission of 528 nm using a Tecan Infinite M1000 microplate reader. Assays done by Millipore were conducted similarly with changes noted below: […]

PDE4D3 = molecular target: T2, PDE4D3 (Homo sapiens, UniProt Q08499); assay: In vitro PDE assay; assay type: biochemical
T2 construct: purchased BPS Biosciences (San Diego, Calif.); kinetic studies by Millipore (St. Louis, Mo.)
Protocol: as §2, §3, §4

Gli1 mRNA = assay: Hh % Inh.: SAG-induced Gli1 expression in C3H10T½ cells (qPCR); assay type: cell-based; details: Mus musculus, C3H 10T1/2, SAG-induced (100 nM), 24 hours
Protocol: Compounds are dosed from 10 mM DMSO stock solutions, and mRNA is isolated after 24 hours of compound treatment. mRNA is reverse transcribed to produce cDNA which is quantified by quantitative polymerase chain reaction (qPCR) in triplicate and levels are normalized to GAPDH levels. Data is presented as percent inhibition compared to positive control (SAG).

[2] = tested on: Hedgehog signaling (TM3-Gli-Luc); assay: TM3-Gli-Luc luciferase reporter assay stimulated with 20 nM SAG; assay type: cell-based; details: Table 9A; read-out: TM3 G8 Luciferase EC 50
Outline: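 TM3-Gli-Luc cells on 0.1% gelatin in DMEM/F12 with 2.5% FBS, treated 48 h with compound plus 20 nM SAG. Steady-Glo luminescence normalized to CellTiter-Glo viability, DMSO-only (no SAG) background subtracted, percent of SAG control. EC50 averaged from ≥2 independent days ±SEM.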

T1 sequence (Q08499 303-809): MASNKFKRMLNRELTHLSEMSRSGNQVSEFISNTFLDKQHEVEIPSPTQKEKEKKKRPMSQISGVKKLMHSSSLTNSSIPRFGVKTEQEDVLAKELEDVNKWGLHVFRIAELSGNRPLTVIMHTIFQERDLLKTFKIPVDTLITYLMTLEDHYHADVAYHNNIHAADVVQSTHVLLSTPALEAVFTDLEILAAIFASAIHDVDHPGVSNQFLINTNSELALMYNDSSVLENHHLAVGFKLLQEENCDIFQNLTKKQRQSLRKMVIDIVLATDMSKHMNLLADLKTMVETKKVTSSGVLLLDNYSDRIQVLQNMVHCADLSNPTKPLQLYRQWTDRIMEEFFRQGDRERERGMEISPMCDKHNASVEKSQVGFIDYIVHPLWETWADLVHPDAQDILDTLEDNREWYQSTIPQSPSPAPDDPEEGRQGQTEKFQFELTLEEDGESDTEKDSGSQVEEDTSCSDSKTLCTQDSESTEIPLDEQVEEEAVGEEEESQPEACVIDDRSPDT
T2 sequence (Q08499 1-673 isoform Q08499-2): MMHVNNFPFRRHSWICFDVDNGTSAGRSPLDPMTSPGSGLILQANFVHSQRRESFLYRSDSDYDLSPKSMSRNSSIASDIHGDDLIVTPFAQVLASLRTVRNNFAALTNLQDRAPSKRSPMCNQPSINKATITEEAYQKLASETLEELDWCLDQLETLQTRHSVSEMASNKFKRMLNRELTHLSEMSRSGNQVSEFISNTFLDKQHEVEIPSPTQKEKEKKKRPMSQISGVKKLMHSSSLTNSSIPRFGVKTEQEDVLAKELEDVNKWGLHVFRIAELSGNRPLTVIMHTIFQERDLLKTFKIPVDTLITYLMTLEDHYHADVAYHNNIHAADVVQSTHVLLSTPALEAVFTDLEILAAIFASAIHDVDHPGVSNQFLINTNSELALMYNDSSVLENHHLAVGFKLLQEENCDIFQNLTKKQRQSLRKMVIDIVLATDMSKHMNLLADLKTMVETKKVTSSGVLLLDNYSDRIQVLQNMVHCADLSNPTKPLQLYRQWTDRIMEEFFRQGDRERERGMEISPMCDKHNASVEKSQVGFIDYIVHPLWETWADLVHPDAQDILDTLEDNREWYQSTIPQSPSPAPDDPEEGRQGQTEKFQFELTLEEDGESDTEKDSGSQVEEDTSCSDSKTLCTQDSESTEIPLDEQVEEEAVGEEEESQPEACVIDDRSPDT

Row | SMILES | pEC50 [1] | EC50 (B16F11) | EC50 (DU145) | EC50 (DaoY) | EC50 (HCT116) | EC50 (HeLa) | EC50 (MDA-MB- 231) | EC50 (RKO) | EC50 (RWGT2) | EC50 (SW480) | EC50 (MCF7) | EC50 (PC3) | EC50 (H82) | pIC50 (PDE4D2; Table 9B) | pIC50 (PDE4D3; Table 9B) | pIC50 (PDE4D2; Table 9A) | pIC50 (PDE4D3; Table 9A) | inhibition at 1 µM (Gli1 mRNA; 1 pM [sic], read-out: C3H10T1/2 qPCR, Gh1 mRNA % Inh., 1 pM) | inhibition at 10 µM (Gli1 mRNA; 10 pM [sic], read-out: C3H10T1/2 qPCR, Gh1 mRNA % Inh., 10 pM) | pEC50 [2]
1 | Cn1c(SCC(=O)c2ccc(F)cc2)nc2sc3c(c2c1=O)CCCC3 [HI302] | < 5.00 | 16 µM | 0.078 µM | 26.6 µM | 21.9 µM | 20.2 µM | 18.7 µM | 0.0096 µM | 22.9 µM | 3.3 µM | > 100 µM | > 100 µM | > 100 µM | – | – | – | – | – | – | –
2 | C=CCn1c(SCC(=O)c2ccccc2)nc2sc(C)cc2c1=O [HI277] | < 5.00 | > 100 µM | 180 µM | 247 µM | 136 µM | 5.11 µM | 186 µM | > 100 µM | 30.5 µM | 0.03 µM | > 100 µM | > 100 µM | > 100 µM | – | – | – | – | – | – | –
3 | C=CCn1c(SCC(=O)c2ccccc2)nc2scc(-c3ccccc3)c2c1=O [HI696] | > 6.00 | 0.0066 µM | > 100 µM | 2.95 µM | 3.2 µM | 3.75 µM | 1.2 µM | > 100 µM | 64.9 µM | 2.6 µM | > 100 µM | > 100 µM | > 100 µM | 5.13 | 4.85 | – | – | – | – | –
4 | C=C(C)Cn1c(SCC(=O)N2CCOCC2)nc2sc3c(c2c1=O)CCCC3 [JEH-3-079] | – | – | – | – | – | – | – | – | – | – | – | – | – | – | – | 5.49 | 5.39 | 25.1% | 50.8% | 4.74
5 | C=CCn1c(SCC(=O)N2CCOCC2)nc2sc3c(c2c1=O)CCCC3 [Formula 1L4R] | – | – | – | – | – | – | – | – | – | – | – | – | – | – | – | < 4.00 | < 4.00 | – | – | 5.55
6 | CCCCn1c(SCC(=O)c2ccccc2)nc2sc3c(c2c1=O)CCC3 [HI352] | < 5.00 | 109 µM | 98.1 µM | 100 µM | 74.7 µM | 114 µM | 84.5 µM | 100 µM | 73.8 µM | 0.287 µM | > 100 µM | 0.03 µM | > 100 µM | – | 4.70 | – | – | – | – | –
7 | C=CCn1c(SCC(=O)c2ccccn2)nc2sc3c(c2c1=O)CCCC3 [Formula 1KL1] | – | – | – | – | – | – | – | – | – | – | – | – | – | – | – | 4.60 | 4.21 | – | – | –
8 | C=CCn1c(SCC(=O)c2ccc(Cl)s2)nc2sc(C)c(C)c2c1=O [HI499] | 5.02 to 5.34 | 46 µM | 48.8 µM | 177 µM | 28.1 µM | 441 µM | > 100 µM | 35.7 µM | 45.8 µM | 0.69 µM | 2.67 µM | 202 µM | > 100 µM | – | – | – | – | – | – | –
